Tests used:
Assay in all cases: I-Ag7 SABR-II library screen, enrichment score
Type in all cases: cell-based, mouse
TCR10A = conditions: TCR_Mean minus PREDICTED_TCR (from LIB_Mean, SLOPE 0.950997, INTERCEPT 1.20253e-5), PZ47
Text: (§1) We then asked whether SABR-IIs could be used to present a library of epitopes for CD4^+ T cell antigen discovery. To that end, we constructed a SABR-II library to present epitopes derived from pancreatic islets in I-Ag7 by curating a list of 4,075 published epitopes from the Immune Epitope Database (iedb.org)[50] and a study by Wan et al.[51] (Supplementary Table 1). Of note, this defined library consisted of unmodified epitopes from endogenous proteins, synthetic mimotopes, deamidated epitopes and hybrid insulin peptides (HIPs) that arise from post-translational fusion and are not genetically encoded in vivo[52],[53]. The epitope library was inserted into the I-Ag7 SABR-II backbone through pooled oligonucleotide synthesis, amplification and ligation-free cloning (Extended Data Fig. 3a). The I-Ag7 SABR-II-library was then expressed in NFAT–GFP Jurkat cells. We confirmed that after sequencing, the library accounted for a mean of 708 reads per epitope (Extended Data Fig. 3b). As a proof of concept, we performed co-incubation assays with Jurkat cells expressing the BDC2.5 TCR and sorted the top 1–2% of GFP^+CD69^+ cells at a rate of ~20 min per replicate with three replicates per TCR. We extracted the genomic DNA from sorted cells, amplified the SABR portion of the integrated proviruses and subjected the amplicons to Illumina sequencing (Extended Data Fig. 3c,d). The 1–2% sort gate represents >50-fold enrichment of cognate epitopes with minimal loss of signal (Extended Data Fig. 3e–h). Sequence reads were aligned to the I-Ag7 SABR-II backbone and the corresponding epitopes were scored based on their read counts. For each TCR under investigation, an enrichment score (ES) was determined for all the epitopes in a library. In each experiment, three replicates of a sort with TCR-expressing Jurkat cells were performed and reads were counted post-sequencing. In addition, three replicates of the unsorted library were also sequenced. A linear regression model was built using the unsorted library counts and used to determine the expected abundance of each epitope in the library. The ES was calculated based on the difference between the measured and the expected abundance of each epitope on a per-TCR basis (Fig. 1e). Based on ES values, two quantitative thresholds were used to determine putative cognate epitopes of a given TCR. A high-confidence zone containing clear outliers with a high ES and a low-confidence zone containing weak outliers with a moderately high ES were determined (Fig. 1e). This two-tiered strategy was used to call putative hits from screens. All the top-scoring epitopes for the BDC2.5 TCR were known BDC2.5 ligands containing the WXRM(D/E) motif (Fig. 1f,g, enriched ligands in red), a well-characterized trait of the BDC2.5 TCR[43],[54]–[56]. Across several independent experiments there was limited variation in ES values for the same TCRs and several epitopes fell into high- or low-confidence zones consistently (Extended Data Fig. 4a). Using a different TCR that was isolated from NOD mice, 4-8Ins[57], which recognized the InsB9:23 epitope ([…]), we observed a similar pattern of ES for cognate epitopes (Extended Data Fig. 4b).
(§2) We performed systematic screening of the cloned TCRs against the I-Ag7 SABR-II library. Several TCRs along with a positive control (such as BDC2.5 or 4-8Ins) were screened individually against the library for each sort (Extended Data Fig. 6a and Supplementary Table 4). High- and low-confidence ES zones for each screened TCR were defined by the ES values of the control TCR’s cognate epitopes. For all putative cognate epitopes, single SABR-IIs were constructed, expressed in NFAT–GFP Jurkat cells and used for co-incubation with the corresponding TCRs. Co-incubation assays that yielded a GFP signal higher than that obtained in assays with no TCR were determined to be positive and the epitopes deemed true cognate ligands (Extended Data Fig. 6b,c). […]

TCR17A = conditions: TCR_Mean minus PREDICTED_TCR (from LIB_Mean, SLOPE 0.925966, INTERCEPT 1.81678e-5), PZ52
Text: as §1, §2

TCR17B = conditions: TCR_Mean minus PREDICTED_TCR (from LIB_Mean, SLOPE 0.911347, INTERCEPT 2.17553e-5), PZ52
Text: as §1, §2

TCR1 = conditions: sheet TCR1-PZ44; ES = TCRObserved - TCRPredicted; TCRPredicted = LIBObserved x SLOPE + INTERCEPT; SLOPE 0.917532, INTERCEPT 2.02377e-5
Text: as §1, §2

TCR26 = conditions: TCR_Mean minus PREDICTED_TCR (slope 0.971972, intercept 6.87806e-6 on LIB_Mean), TCR 26, run PZ56
Text: as §1, §2

TCR28 = conditions: TCR_Mean minus PREDICTED_TCR (slope 0.899229, intercept 2.47291e-5 on LIB_Mean), TCR 28, run PZ57
Text: as §1, §2

TCR29 = conditions: TCR_Mean minus PREDICTED_TCR (slope 0.951614, intercept 1.18738e-5 on LIB_Mean), TCR 29, run PZ98
Text: as §1, §2

TCR34 = conditions: TCR_Mean minus PREDICTED_TCR (slope 0.916696, intercept 2.04427e-5 on LIB_Mean), TCR 34, run PZ57
Text: as §1, §2

TCR35 = conditions: TCR_Mean minus PREDICTED_TCR (slope 0.982658, intercept 4.25575e-6 on LIB_Mean), TCR 35, run PZ101
Text: as §1, §2

TCR38 = conditions: I-Ag7 SABR-II library PZ101, CD4 TCR 38; TCR_Mean of 3 replicates minus PREDICTED_TCR (slope 0.968274, intercept 7.78554e-6)
Text: as §1, §2

TCR3 = test system: TCR3
Text: as §1, §2

TCR6B = conditions: sheet TCR6B-PZ37; ES = TCRObserved - TCRPredicted; TCRPredicted = LIBObserved x SLOPE + INTERCEPT; SLOPE 0.908569, INTERCEPT 2.24372e-5
Text: as §1, §2

TCR7 = test system: TCR7
Text: as §1, §2

[1] = I-Ag7 library, one biological experiment
[2] = sheet TCR3-PZ37, ES = TCRObserved - TCRPredicted, TCRPredicted = LIBObserved x SLOPE + INTERCEPT, SLOPE 0.907522, INTERCEPT 2.2694e-5
[3] = sheet TCR7-PZ47, ES = TCRObserved - TCRPredicted, TCRPredicted = LIBObserved x SLOPE + INTERCEPT, SLOPE 0.961246, INTERCEPT 9.5102e-6

AAVEEGIVAGGGVTLL
Enrichment score (TCR10A): 0.0001778
Enrichment score (TCR17A): -0.0001329
Enrichment score (TCR17B): -0.0001643
Enrichment score (TCR1): 0.0002622
Enrichment score (TCR26): -0.0002176
Enrichment score (TCR28): -8.055e-6
Enrichment score (TCR29): -4.805e-5
Enrichment score (TCR34): -0.0002018
Enrichment score (TCR35): -8.894e-5
Enrichment score (TCR38): 0.0001517
Enrichment score (TCR3; [1]): -0.00015
Enrichment score (TCR3; [2]): -0.00015
Enrichment score (TCR6B): 4.397e-5
Enrichment score (TCR7; [1]): 1.142e-5
Enrichment score (TCR7; [3]): 1.142e-5

AEKVRNLPAGHGLNAQ
Enrichment score (TCR10A): -7.319e-5
Enrichment score (TCR17A): -0.0001276
Enrichment score (TCR17B): -3.983e-5
Enrichment score (TCR1): 9.239e-5
Enrichment score (TCR26): 4.292e-6
Enrichment score (TCR28): 9.652e-5
Enrichment score (TCR29): -9.799e-5
Enrichment score (TCR34): 6.942e-5
Enrichment score (TCR35): -0.0001779
Enrichment score (TCR38): -3.923e-5
Enrichment score (TCR3; [1]): -2.569e-5
Enrichment score (TCR3; [2]): -2.569e-5
Enrichment score (TCR6B): -0.0001883
Enrichment score (TCR7; [1]): 5.397e-5
Enrichment score (TCR7; [3]): 5.397e-5

AGGVAVIKAGAATEV
Enrichment score (TCR10A): -2.727e-5
Enrichment score (TCR17A): -5.895e-5
Enrichment score (TCR17B): 5.455e-5
Enrichment score (TCR1): 3.28e-9
Enrichment score (TCR26): -8.754e-5
Enrichment score (TCR28): 5.039e-6
Enrichment score (TCR29): -4.862e-5
Enrichment score (TCR34): -0.0001037
Enrichment score (TCR35): 7.19e-5
Enrichment score (TCR38): 4.352e-5
Enrichment score (TCR3; [1]): -3.191e-5
Enrichment score (TCR3; [2]): -3.191e-5
Enrichment score (TCR6B): 0.0001547
Enrichment score (TCR7; [1]): -2.964e-5
Enrichment score (TCR7; [3]): -2.964e-5

AKAAVEEGIVAGGGV
Enrichment score (TCR10A): -4.524e-5
Enrichment score (TCR17A): 7.661e-5
Enrichment score (TCR17B): 0.0004148
Enrichment score (TCR1): -8.988e-5
Enrichment score (TCR26): -6.247e-5
Enrichment score (TCR28): 0.000168
Enrichment score (TCR29): -1.352e-5
Enrichment score (TCR34): 3.575e-5
Enrichment score (TCR35): -4.28e-5
Enrichment score (TCR38): -6.1876e-5
Enrichment score (TCR3; [1]): -0.0001294
Enrichment score (TCR3; [2]): -0.0001294
Enrichment score (TCR6B): 0.0001193
Enrichment score (TCR7; [1]): 0.0001251
Enrichment score (TCR7; [3]): 0.0001251

ALVREGLRNVAAGANP
Enrichment score (TCR10A): -1.221e-5
Enrichment score (TCR17A): -1.826e-5
Enrichment score (TCR17B): -2.185e-5
Enrichment score (TCR1): -2.024e-5
Enrichment score (TCR26): -7.519e-6
Enrichment score (TCR28): -1.908e-5
Enrichment score (TCR29): -1.187e-5
Enrichment score (TCR34): -2.044e-5
Enrichment score (TCR35): -4.256e-6
Enrichment score (TCR38): -7.786e-6
Enrichment score (TCR3; [1]): -2.328e-5
Enrichment score (TCR3; [2]): -2.328e-5
Enrichment score (TCR6B): -2.303e-5
Enrichment score (TCR7; [1]): -9.699e-6
Enrichment score (TCR7; [3]): -9.699e-6
